In US20110207723A1, “NOVEL FUSED AMINODIHYDROTHIAZINE DERIVATIVE” (EISAI R&D MANAGEMENT CO., LTD., priority 2008, published 2011):

Tested on: Aβ42 production
Test: Quantification of Aβ peptide in culture of neurons from rat fetus brain (Aβ42 ELISA)
Format: cell-based
Conditions: Neuron, 72 h, rat primary neuronal culture (embryonic day 18 Wistar rat cerebral cortex), medium collected three days after addition of compound, read-out: Aβ42 production reducing effect IC50
Procedure: Quantification of Aβ Peptide in Culture of Neurons from Rat Fetus Brain
Primary neuronal cultures were prepared from the cerebral cortex of embryonic day 18 Wistar rats (Charles River Japan, Yokohama, Japan). Specifically, the embryos were aseptically removed from pregnant rats under ether anesthesia. The brain was isolated from the embryo and immersed in an ice-cold L-15 medium (such as Invitrogen Corp. Cat #11415-064, Carlsbad, Calif., USA, or SIGMA L1518). The cerebral cortex was collected from the isolated brain under a stereoscopic microscope. The cerebral cortex fragments collected were enzymatically treated in an enzyme solution containing 0.25% trypsin (Invitrogen Corp. Cat #15050-065, Carlsbad, Calif., USA) and 0.01% DNase (Sigma D5025, St. Louis, Mo., USA) at 37° C. for 30 minutes to disperse the cells. Here, the enzymatic reaction was stopped by adding inactivated horse serum to the solution. The enzymatically treated solution was centrifuged at 1,500 rpm for five minutes to remove the supernatant. 5 to 10 ml of a medium was added to the resulting cell mass. Neurobasal medium (Invitrogen Corp. Cat #21103-049, Carlsbad, Calif., USA) supplemented with 2% B27 supplement (Invitrogen Corp. Cat #17504-044, Carlsbad, Calif., USA), 25 μM 2-mercaptoethanol (2-ME, WAKO Cat #139-06861, Osaka, Japan), 0.5 mM L-glutamine (Invitrogen Corp. Cat #25030-081, Carlsbad, Calif., USA), and Antibiotics-Antimycotics (Invitrogen Corp. Cat #15240-062, Carlsbad, Calif., USA) was used as the medium (Neurobasal/B27/2-ME). However, the above Neurobasal medium not supplemented with 2-ME (Neurobasal/B27) was used for the assay. The cells were redispersed by mild pipetting of the cell mass to which the medium was added. The cell dispersion was filtered through a 40-μm nylon mesh (Cell Strainer, Cat #35-2340, Becton Dickinson Labware, Franklin Lakes, N.J., USA) to remove the remaining cell mass, and thus a neuronal cell suspension was obtained. The neuronal cell suspension was diluted with the medium and then plated in a volume of 100 μl/well at an initial cell density of 5×10^5 cells/cm^2 in a 96-well polystyrene culture plate pre-coated with poly-L or D-lysine (Falcon Cat #35-3075, Becton Dickinson Labware, Franklin Lakes, N.J., USA coated with poly-L-lysine using the method shown below, or BIOCOAT™ cell environments Poly-D-lysine cell ware 96-well plate, Cat #35-6461, Becton Dickinson Labware, Franklin Lakes, N.J., USA). Poly-L-lysine coating was carried out as follows. 100 μg/ml of a poly-L-lysine (SIGMA P2636, St. Louis, Mo., USA) solution was aseptically prepared with a 0.15 M borate buffer (pH 8.5). […] of the solution was added to the 96-well polystyrene culture plate and incubated at room temperature for one or more hours or at 4° C. overnight or longer. Thereafter, the coated 96-well polystyrene culture plate was washed with sterile water four or more times, and then dried or rinsed with, for example, sterile PBS or medium, and used for cell plating. The plated cells were cultured in the culture plate at 37° C. in 5% CO2-95% air for one day. Then, the total amount of the medium was replaced with a fresh Neurobasal/B27/2-ME medium, and then the cells were cultured for further three days.
The drug was added to the culture plate on Day 4 of culture as follows. The total amount of the medium was removed from the wells, and 180 μl/well of Neurobasal medium not containing 2-ME and containing 2% B-27 (Neurobasal/B27) was added thereto. A solution of the test compound in dimethyl sulfoxide (hereinafter abbreviated as DMSO) was diluted with Neurobasal/B27 to a concentration 10-fold higher than the final concentration. 20 μl/well of the dilution was added to and sufficiently mixed with the medium. The final DMSO concentration was 1% or less. Only DMSO was added to the control group.
The cells were cultured for three days after addition of the compound, and the total amount of the medium was collected. […]

Compound	IC50
NC1=N[C@@]2(c3cc(NC(=O)c4ccc(Cl)cn4)ccc3F)CO[C@@H](CO)C[C@H]2CS1 [Example 33, N-[3-((4aR,6R,8aS)-2-amino-6-hydroxymethyl-4,4a,5,6-tetrahydro-7-oxa-3-thia-1-azanaphthalen-8a-yl)-4-fluorophenyl]-5-chloropyridine-2-carboxamide]	1.1 nM
C[C@H]1COC[C@]2(c3cc(NC(=O)c4cnc(C(F)F)cn4)ccc3F)N=C(N)SC[C@H]12 (relative stereo) [Example 29, N-[3-((4aR*,5R*,8aS*)-2-amino-5-methyl-4,4a,5,6-tetrahydro-7-oxa-3-thia-1-azanaphthalen-8a-yl)-4-fluorophenyl]-5-difluoromethylpyrazine-2-carboxamide]	3 nM
NC1=N[C@@]2(c3cc(NC(=O)c4ccc(OC(F)F)cn4)ccc3F)CO[C@@H](C(F)(F)F)C[C@H]2CS1 (relative stereo) [Example 42, N-[3-((4aR*,6R*,8aS*)-2-amino-6-trifluoromethyl-4,4a,5,6-tetrahydro-7-oxa-3-thia-1-azanaphthalen-8a-yl)-4-fluorophenyl]-5-difluoromethoxypyridine-2-carboxamide]	0.9 nM
C[C@H]1COC[C@]2(c3cc(NC(=O)c4ccc(C#N)cn4)ccc3F)N=C(N)SC[C@H]12 (relative stereo) [Example 27, N-[3-((4aR*,5R*,8aS*)-2-amino-5-methyl-4,4a,5,6-tetrahydro-7-oxa-3-thia-1-azanaphthalen-8a-yl)-4-fluorophenyl]-5-cyanopyridine-2-carboxamide]	8 nM
NC1=N[C@@]2(c3cc(NC(=O)c4ccncn4)ccc3F)CO[C@@H](C(F)(F)F)C[C@H]2CS1 (relative stereo) [Example 40, N-[3-((4aR*,6R*,8aS*)-2-amino-6-trifluoromethyl-4,4a,5,6-tetrahydro-7-oxa-3-thia-1-azanaphthalen-8a-yl)-4-fluorophenyl]-pyrimidine-4-carboxamide]	2 nM
COC[C@H]1C[C@H]2CSC(N)=N[C@@]2(c2cc(NC(=O)c3ccc(C#N)cn3)ccc2F)CO1 (relative stereo) [Example 11, N-[3-((4aR*,6R*,8aS*)-2-amino-6-methoxymethyl-4,4a,5,6-tetrahydro-7-oxa-3-thia-1-azanaphthalen-8a-yl)-4-fluorophenyl]-5-cyanopyridine-2-carboxamide]	0.7 nM
C[C@@H]1COC[C@]2(c3cc(NC(=O)c4ccc(C#N)cn4)ccc3F)N=C(N)SC[C@H]12 (relative stereo) [Example 24, N-[3-((4aR*,5S*,8aS*)-2-amino-5-methyl-4,4a,5,6-tetrahydro-7-oxa-3-thia-1-azanaphthalen-8a-yl)-4-fluorophenyl]-5-cyanopyridine-2-carboxamide]	9 nM
COC[C@H]1C[C@H]2CSC(N)=N[C@@]2(c2cc(NC(=O)c3cnc(C(F)F)cn3)ccc2F)CO1 (relative stereo) [Example 12, N-[3-((4aR*,6R*,8aS*)-2-amino-6-methoxymethyl-4,4a,5,6-tetrahydro-7-oxa-3-thia-1-azanaphthalen-8a-yl)-4-fluorophenyl]-5-difluoromethylpyrazine-2-carboxamide]	1.1 nM
NC1=N[C@@]2(c3cc(NC(=O)c4cnc(C(F)F)cn4)ccc3F)CO[C@@H](C(F)(F)F)C[C@H]2CS1 (relative stereo) [Example 43, N-[3-((4aR*,6R*,8aS*)-2-amino-6-trifluoromethyl-4,4a,5,6-tetrahydro-7-oxa-3-thia-1-azanaphthalen-8a-yl)-4-fluorophenyl]-5-difluoromethylpyrazine-2-carboxamide]	1.7 nM
NC1=N[C@@]2(c3cc(NC(=O)c4cnc(OCF)cn4)ccc3F)CO[C@@H](C(F)(F)F)C[C@H]2CS1 (relative stereo) [Example 39, N-[3-((4aR*,6R*,8aS*)-2-amino-6-trifluoromethyl-4,4a,5,6-tetrahydro-7-oxa-3-thia-1-azanaphthalen-8a-yl)-4-fluorophenyl]-5-fluoromethoxypyrazine-2-carboxamide]	1 nM
NC1=N[C@@]2(c3cc(NC(=O)c4ccc(Cl)cn4)ccc3OC(F)(F)F)COCC[C@H]2CS1 (single isomer, unassigned) [Example 5, N-[3-((8S*,8aS*)-2-amino-4,4a,5,6-tetrahydro-7-oxa-3-thia-1-azanaphthalen-8a-yl)-4-trifluoromethoxyphenyl]-5-chloropyridine-2-carboxamide]	58 nM
NC1=N[C@@]2(c3cc(NC(=O)c4cnc(C(F)F)cn4)ccc3F)COC[C@@H](F)[C@H]2CS1 [Example 17, N-[3-((4aS,5S,8aS)-2-amino-5-fluoro-4,4a,5,6-tetrahydro-7-oxa-3-thia-1-azanaphthalen-8a-yl)-4-fluorophenyl]-5-difluoromethylpyrazine-2-carboxamide]	4 nM
NC1=N[C@@]2(c3cc(NC(=O)c4ccc(Br)cn4)ccc3F)COCC[C@H]2CS1 (single isomer, unassigned) [Example 50, N-[3-((4aR*,8aS*)-2-amino-4,4a,5,6-tetrahydro-7-oxa-3-thia-1-azanaphthalen-8a-yl)-4-fluorophenyl]-5-bromopyridine-2-carboxamide]	2 nM
NC1=N[C@@]2(c3cc(NC(=O)c4ccc(Cl)cn4)ccc3F)COC[C@@H](F)[C@H]2CS1 [Example 18, N-[3-((4aS,5S,8aS)-2-amino-5-fluoro-4,4a,5,6-tetrahydro-7-oxa-3-thia-1-azanaphthalen-8a-yl)-4-fluorophenyl]-5-chloropyridine-2-carboxamide]	7 nM
NC1=N[C@@]2(c3cc(NC(=O)c4ccc(C(F)(F)F)cn4)ccc3F)CO[C@@H](CF)C[C@H]2CS1 [Example 46, N-[3-((4aR,6R,8aS)-2-amino-6-fluoromethyl-4,4a,5,6-tetrahydro-7-oxa-3-thia-1-azanaphthalen-8a-yl)-4-fluorophenyl]-5-trifluoromethylpyridine-2-carboxamide]	1 nM
NC1=N[C@@]2(c3cc(NC(=O)c4ncc(Cl)cc4Cl)ccc3F)COCC[C@H]2CS1 (single isomer, unassigned) [Example 52, N-[3-((4aR*,8aS*)-2-amino-4,4a,5,6-tetrahydro-7-oxa-3-thia-1-azanaphthalen-8a-yl)-4-fluorophenyl]-3,5-dichloropyridine-2-carboxamide]	2 nM
NC1=N[C@@]2(c3cc(NC(=O)c4cnc(OC(F)F)cn4)ccc3F)COC[C@@H](F)[C@H]2CS1 [Example 22, N-[3-((4aS,5S,8aS)-2-amino-5-fluoro-4,4a,5,6-tetrahydro-7-oxa-3-thia-1-azanaphthalen-8a-yl)-4-fluorophenyl]-5-difluoromethoxypyrazine-2-carboxamide]	4 nM
NC1=N[C@@]2(c3cc(-c4cccnc4F)ccc3F)COCC[C@H]2CS1 (racemic) [Example 61, (±)-(4aR*,8aS*)-8a-[2-fluoro-5-(2-fluoropyridin-3-yl)phenyl]-4,4a,5,6,8,8a-hexahydro-7-oxa-3-thia-1-azanaphthalen-2-ylamine]	319 nM
N#Cc1ccc(C(=O)Nc2ccc(F)c([C@]34COC[C@@H](F)[C@H]3CSC(N)=N4)c2)nc1 [Example 16, N-[3-((4aS,5S,8aS)-2-amino-5-fluoro-4,4a,5,6-tetrahydro-7-oxa-3-thia-1-azanaphthalen-8a-yl)-4-fluorophenyl]-5-cyanopyridine-2-carboxamide]	1.1 nM
